Reference: US12139487B2, “Compounds and uses thereof” (Foghorn Therapeutics Inc., priority 2022, dated 2024)

How the values were obtained:
[1] = biological target: T1, BRM (Homo sapiens, UniProt P51531); experiment: ATPase catalytic activity assay (ADP-Glo), BRM; type: biochemical; details: Table 10; for Ratio (BRG1 IC50 (μM) divided by BRM IC50 (μM)): ATPase assay, selectivity BRG1/BRM; for IC50: ATPase catalytic activity assay (ADP-Glo)
T1 construct: made in house; host or cells: High Five insect cells
T1 sequence (P51531 whole entry): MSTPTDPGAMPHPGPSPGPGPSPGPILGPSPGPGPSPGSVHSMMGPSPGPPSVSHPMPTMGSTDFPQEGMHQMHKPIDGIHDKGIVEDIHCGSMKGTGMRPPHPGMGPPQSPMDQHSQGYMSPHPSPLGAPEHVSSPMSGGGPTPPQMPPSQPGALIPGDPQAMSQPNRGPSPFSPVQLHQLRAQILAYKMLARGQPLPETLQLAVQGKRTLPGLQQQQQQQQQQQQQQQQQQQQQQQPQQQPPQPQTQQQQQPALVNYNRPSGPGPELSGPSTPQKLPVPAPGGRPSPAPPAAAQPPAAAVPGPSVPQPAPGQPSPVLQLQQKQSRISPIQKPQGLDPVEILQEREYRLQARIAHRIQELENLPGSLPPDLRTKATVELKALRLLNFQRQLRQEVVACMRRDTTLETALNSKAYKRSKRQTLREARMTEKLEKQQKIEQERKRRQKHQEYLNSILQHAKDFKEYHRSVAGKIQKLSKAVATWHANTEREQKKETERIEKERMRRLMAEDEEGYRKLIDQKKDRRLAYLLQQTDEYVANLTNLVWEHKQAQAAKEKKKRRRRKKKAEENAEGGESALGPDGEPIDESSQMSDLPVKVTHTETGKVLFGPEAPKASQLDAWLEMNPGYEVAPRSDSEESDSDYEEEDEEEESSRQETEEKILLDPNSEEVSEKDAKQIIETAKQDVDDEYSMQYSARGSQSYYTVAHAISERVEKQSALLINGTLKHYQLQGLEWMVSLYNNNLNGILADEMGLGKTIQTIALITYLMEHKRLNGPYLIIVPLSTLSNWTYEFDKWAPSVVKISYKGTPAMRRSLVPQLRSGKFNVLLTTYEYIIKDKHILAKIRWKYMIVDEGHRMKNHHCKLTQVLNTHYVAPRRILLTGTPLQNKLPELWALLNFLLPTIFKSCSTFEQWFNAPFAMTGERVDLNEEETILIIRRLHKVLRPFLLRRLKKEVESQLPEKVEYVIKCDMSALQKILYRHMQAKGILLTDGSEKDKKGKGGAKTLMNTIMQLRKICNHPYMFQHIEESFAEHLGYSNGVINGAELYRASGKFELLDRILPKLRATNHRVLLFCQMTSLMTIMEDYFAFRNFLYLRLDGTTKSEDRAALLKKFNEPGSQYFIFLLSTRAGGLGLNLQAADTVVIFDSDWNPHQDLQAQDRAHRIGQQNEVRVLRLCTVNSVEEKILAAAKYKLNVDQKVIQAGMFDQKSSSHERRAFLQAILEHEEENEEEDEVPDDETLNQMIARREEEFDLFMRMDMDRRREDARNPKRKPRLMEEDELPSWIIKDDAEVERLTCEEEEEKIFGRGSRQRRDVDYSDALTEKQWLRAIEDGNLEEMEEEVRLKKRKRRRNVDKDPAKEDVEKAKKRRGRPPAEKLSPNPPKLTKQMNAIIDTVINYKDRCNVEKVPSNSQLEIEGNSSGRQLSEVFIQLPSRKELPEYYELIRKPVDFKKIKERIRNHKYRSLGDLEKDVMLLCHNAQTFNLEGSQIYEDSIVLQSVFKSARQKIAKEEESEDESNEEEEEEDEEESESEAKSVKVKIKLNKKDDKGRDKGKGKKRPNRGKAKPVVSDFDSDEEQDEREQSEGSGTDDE
Outline: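 Reaction holds 30 nM BRM, 20 nM salmon sperm DNA and 400 μM ATP in 20 mM Tris pH 8, 20 mM MgCl2, 50 mM NaCl, 0.1% Tween-20, 1 mM DTT. Incubated 1 h at room temperature. ADP formed is detected by ADP-Glo luminescence.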

[2] = biological target: T2, BRG-1 (Homo sapiens, UniProt P51532); experiment: ATPase catalytic activity assay (ADP-Glo), BRG-1; type: biochemical; details: Table 10, read-out: BRG1 IC50
T2 construct: made in house; host or cells: High Five insect cells
T2 sequence (P51532 whole entry): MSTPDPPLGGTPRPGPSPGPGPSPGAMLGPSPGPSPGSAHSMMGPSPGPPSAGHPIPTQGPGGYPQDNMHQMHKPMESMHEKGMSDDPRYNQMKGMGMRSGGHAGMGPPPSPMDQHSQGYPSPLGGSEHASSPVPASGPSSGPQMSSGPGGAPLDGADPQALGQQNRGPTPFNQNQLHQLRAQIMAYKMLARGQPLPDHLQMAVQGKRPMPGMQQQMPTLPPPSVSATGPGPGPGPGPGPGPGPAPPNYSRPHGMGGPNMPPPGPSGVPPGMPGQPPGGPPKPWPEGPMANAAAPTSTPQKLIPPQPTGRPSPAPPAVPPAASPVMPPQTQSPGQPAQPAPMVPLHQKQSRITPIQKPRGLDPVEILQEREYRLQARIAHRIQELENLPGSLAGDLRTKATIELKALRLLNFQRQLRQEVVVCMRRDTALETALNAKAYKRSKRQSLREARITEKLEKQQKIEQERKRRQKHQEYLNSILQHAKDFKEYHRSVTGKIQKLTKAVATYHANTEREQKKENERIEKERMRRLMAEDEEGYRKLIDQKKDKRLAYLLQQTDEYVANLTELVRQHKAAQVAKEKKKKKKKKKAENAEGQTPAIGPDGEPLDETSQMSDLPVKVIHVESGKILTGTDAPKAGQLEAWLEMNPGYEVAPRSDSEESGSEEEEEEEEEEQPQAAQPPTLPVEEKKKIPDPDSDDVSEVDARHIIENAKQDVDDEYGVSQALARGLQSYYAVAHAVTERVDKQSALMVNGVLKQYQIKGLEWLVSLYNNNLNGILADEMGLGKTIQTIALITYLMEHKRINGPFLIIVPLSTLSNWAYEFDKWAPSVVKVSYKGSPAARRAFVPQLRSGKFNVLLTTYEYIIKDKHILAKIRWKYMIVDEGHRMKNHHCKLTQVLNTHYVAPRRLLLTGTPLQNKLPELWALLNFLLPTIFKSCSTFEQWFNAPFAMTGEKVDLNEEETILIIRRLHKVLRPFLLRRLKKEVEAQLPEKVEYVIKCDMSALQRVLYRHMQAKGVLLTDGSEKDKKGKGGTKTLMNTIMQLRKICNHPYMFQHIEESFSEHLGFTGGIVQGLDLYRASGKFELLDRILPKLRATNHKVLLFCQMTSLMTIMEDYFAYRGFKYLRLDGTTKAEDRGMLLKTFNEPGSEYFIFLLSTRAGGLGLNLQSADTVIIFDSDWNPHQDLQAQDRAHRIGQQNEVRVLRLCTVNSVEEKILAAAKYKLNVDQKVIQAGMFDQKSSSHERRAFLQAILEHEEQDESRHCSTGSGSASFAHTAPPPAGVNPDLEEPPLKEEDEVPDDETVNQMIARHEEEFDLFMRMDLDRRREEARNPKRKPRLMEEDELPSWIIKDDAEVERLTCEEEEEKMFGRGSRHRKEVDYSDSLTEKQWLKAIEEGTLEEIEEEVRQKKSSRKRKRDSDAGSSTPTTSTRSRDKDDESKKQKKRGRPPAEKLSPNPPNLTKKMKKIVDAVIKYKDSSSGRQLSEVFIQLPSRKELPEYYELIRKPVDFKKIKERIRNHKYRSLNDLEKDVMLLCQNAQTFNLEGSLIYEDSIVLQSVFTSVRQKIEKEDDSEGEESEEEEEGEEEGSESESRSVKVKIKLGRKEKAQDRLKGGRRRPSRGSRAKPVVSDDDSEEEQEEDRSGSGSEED
Outline: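 BRG-1 ATPase activity was measured by ADP-Glo. Unconsumed ATP was depleted for 40 min at room temperature, then ADP was converted to ATP for 60 min and read as luminescence.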

| Compound | Ratio (BRG1 IC50 (μM) divided by BRM IC50 (μM)) [1] | IC50 [1] | IC50 [2] |
| --- | --- | --- | --- |
| O=C(NCc1cc2nc(N3CCOc4ccc([C@H]5C[C@H]5F)nc43)ccc2cn1)c1cc(F)c2c(c1)S(=O)(=O)[C@@H](F)COC2 [Compound 88] | 21.33 | 3.2 nM | 88.9 nM |
| O=C(NCc1cc2nc(N3CCOc4cc(N5CC(F)C5)cnc43)ccc2cn1)c1cc(F)c2c(c1)S(=O)(=O)[C@@H](F)CCO2 [Compound 139] | 24.09 | 4.7 nM | 147 nM |
| O=C(NCc1cc2nc(N3CCOc4c(N5CCC5)ccnc43)ccc2cn1)c1cc(F)c2c(c1)S(=O)(=O)[C@@H](F)CCO2 [Compound 65] | 21.94 | 2.6 nM | 46.2 nM |
| O=C(NCc1cc2nc(N3CCOc4cc(C5(C(F)F)CC5)cnc43)ccc2cn1)c1cc(F)c2c(c1)S(=O)(=O)[C@@H](F)COC2 [Compound 25] | 21.51 | 1.7 nM | 43.9 nM |
| O=C(NCc1cc2nc(N3CCOc4cc(C56CC(C5)C6)cnc43)ccc2cn1)c1cc(F)c2c(c1)S(=O)(=O)[C@@H](F)CCO2 [Compound 130] | 15.94 | 4.5 nM | 71.1 nM |
| CO[C@@H]1CN(c2cccc(-c3ccc4cnc(CNC(=O)c5cc(F)c6c(c5)S(=O)(=O)[C@@H](F)CCO6)cc4n3)n2)C[C@H]1C [Compound 104] | 10.21 | 3.6 nM | 42.7 nM |
| COc1nc([C@H](C)F)ccc1-c1ccc2cnc(CNC(=O)c3cc(Cl)c4c(c3)S(=O)(=O)[C@@H](F)CCO4)cc2n1 [Compound 308] | 28.69 | 10.4 nM | 329 nM |
| COc1ccc(-c2ccc3cnc(CNC(=O)c4cc(F)c5c(c4)S(=O)(=O)[C@@H](F)CCO5)cc3n2)nc1[C@@H]1CC1(F)F [Compound 273] | 23.61 | 8.9 nM | 210 nM |
| CC1CN(c2ccnc3c2OCCN3c2ccc3cnc(CNC(=O)c4cc(F)c5c(c4)S(=O)(=O)[C@@H](F)CCO5)cc3n2)C1 [Compound 263] | 10.51 | 8.5 nM | 89.7 nM |
| C[C@@H]1CCN1c1cnc2c(c1)OCCN2c1ccc2cnc(CNC(=O)c3cc(Cl)c4c(c3)S(=O)(=O)[C@@H](F)CCO4)cc2n1 [Compound 165] | 22.18 | 5.3 nM | 143 nM |
| C[C@H]1C[C@@H]1c1ccc2c(n1)N(c1ccc3cnc(CNC(=O)c4cc(F)c5c(c4)S(=O)(=O)[C@@H](F)CCO5)cc3n1)CCO2 [Compound 20] | 26.66 | 1.6 nM | 44.7 nM |
| COCCn1c(C)cc2c(-c3ccc4cnc(CNC(=O)c5cc(F)c6c(c5)S(=O)(=O)[C@@H](F)CCO6)cc4n3)cccc21 [Compound 2] | 18.80 | 0.6 nM | 10.5 nM |
| O=C(NCc1cc2nc(N3CCOc4cc(C5CC5)cnc43)ccc2cn1)c1cc(F)c2c(c1)S(=O)(=O)[C@@H](F)CCO2 [Compound 40] | 16.70 | 2 nM | 38.5 nM |
| O=C(NCc1cc2nc(N3CCOc4cc(C5CC5)cnc43)ccc2cn1)c1cc(Cl)c2c(c1)S(=O)(=O)[C@@H](F)CCO2 [Compound 216] | 21.18 | 6.5 nM | 148 nM |
| COc1nc(C(F)F)ccc1-c1ccc2cnc(CNC(=O)c3cc(F)c4c(c3)S(=O)(=O)[C@@H](F)CCO4)c(F)c2n1 [Compound 136] | 13.12 | 4.6 nM | 74.9 nM |
| CCOc1ccnc2c1OCCN2c1ccc2cnc(CNC(=O)c3cc(Cl)c4c(c3)S(=O)(=O)[C@@H](F)COC4)cc2n1 [Compound 27] | 11.52 | 1.8 nM | 19.5 nM |
| COc1nc([C@@H](F)C(F)F)ccc1-c1ccc2cnc(CNC(=O)c3cc(F)c4c(c3)S(=O)(=O)[C@@H](F)CCO4)cc2n1 [Compound 298] | 14.40 | 9.9 nM | 143 nM |
| C[C@@H]1CN(c2cccc(-c3ccc4cnc(CNC(=O)c5ccc6c(c5)S(=O)(=O)[C@H](F)CO[C@H]6C)cc4n3)n2)C[C@H](C)O1 [Compound 200] | 16.77 | 6.1 nM | 101 nM |
| C[C@@H]1C[C@H]1c1ccc2c(n1)N(c1ccc3cnc(CNC(=O)c4cc(F)c5c(c4)S(=O)(=O)[C@@H](F)COC5)cc3n1)CCO2 [Compound 41] | 20.00 | 2 nM | 46.4 nM |
| O=C(NCc1cc2nc(N3CCOc4ccc([C@H]5C[C@@H]5F)nc43)ccc2cn1)c1cc(F)c2c(c1)S(=O)(=O)[C@@H](F)CCO2 [Compound 164] | 32.00 | 5.2 nM | 172 nM |

| Compound | Ratio (BRG1 IC50 (μM) divided by BRM IC50 (μM)) [1] | IC50 [1] | IC50 [2] |
| --- | --- | --- | --- |
| C[C@@H](F)c1cnc2c(c1)OCCN2c1ccc2cnc(CNC(=O)c3cc(F)c4c(c3)S(=O)(=O)[C@@H](F)CCO4)cc2n1 [Compound 274] | 22.22 | 8.9 nM | 192 nM |
| Cc1cc(C(=O)NCc2cc3nc(-c4cccc(N5C[C@@H](C)O[C@@H](C)C5)n4)ccc3cn2)cc2c1COC[C@H](F)S2(=O)=O [Compound 21] | 16.50 | 1.6 nM | 28.3 nM |
| O=C(NCc1cc2nc(N3CCCc4c3ncc(F)c4OC3CC3)ccc2cn1)c1cc(F)c2c(c1)S(=O)(=O)[C@@H](F)CCO2 [Compound 15] | 11.06 | 1.5 nM | 16.6 nM |
| COCCOc1ccc2c(c1)N(c1ccc3cnc(CNC(=O)c4cc(F)c5c(c4)S(=O)(=O)[C@@H](F)CCO5)cc3n1)CCO2 [Compound 35] | 13.74 | 1.9 nM | 23.3 nM |
| O=C(NCc1cc2nc(N3CCOc4ccc([C@H]5C[C@@H]5C(F)F)nc43)ccc2cn1)c1cc(F)c2c(c1)S(=O)(=O)[C@@H](F)CCO2 [Compound 125] | 19.09 | 4.3 nM | 81.5 nM |
| CO[C@H]1CN(c2cccc(-c3ccc4cnc(CNC(=O)c5cc(F)c6c(c5)S(=O)(=O)[C@@H](F)COC6)cc4n3)n2)C[C@@H]1F [Compound 54] | 9.72 | 2.5 nM | 27.9 nM |
| C[C@H](F)c1cnc2c(c1)OCCN2c1ccc2cnc(CNC(=O)c3cc(F)c4c(c3)S(=O)(=O)[C@@H](F)CCO4)cc2n1 [Compound 198] | 17.01 | 6 nM | 103 nM |
| COc1cnc2c(c1)CCCN2c1ccc2cnc(CNC(=O)c3cc(F)c4c(c3)S(=O)(=O)[C@@H](F)CCO4)cc2n1 [Compound 133] | 18.45 | 4.5 nM | 94.2 nM |
| [2H]C1([2H])OC([2H])([2H])[C@H](F)S(=O)(=O)c2cc(C(=O)NCc3cc4nc(N5CCOc6ccc(C(F)F)nc65)ccc4cn3)cc(F)c21 [Compound 163] | – | 5.2 nM | 116 nM |
| CN(CC(F)F)c1cnc2c(c1)OCCN2c1ccc2cnc(CNC(=O)c3cc(F)c4c(c3)S(=O)(=O)[C@@H](F)CCO4)cc2n1 [Compound 105] | 9.68 | 3.7 nM | 36.7 nM |
| O=C(NCc1cc2nc(N3CCOc4cc(N5CCC5)cnc43)ccc2cn1)c1ccc2c(c1)S(=O)(=O)[C@@H](F)CCO2 [Compound 187] | 13.32 | 5.8 nM | 76.6 nM |
| COc1nc(C(C)(F)F)ccc1-c1ccc2cnc(CNC(=O)c3cc(F)c4c(c3)S(=O)(=O)[C@@H](F)CCO4)cc2n1 [Compound 150] | 21.42 | 4.9 nM | 119 nM |
| C[C@@H]1CN(c2cccc(-c3ccc4cnc(CNC(=O)c5ccc6c(c5)S(=O)(=O)[C@@H](F)CN(C)C6)cc4n3)n2)C[C@H](C)O1 [Compound 1, (R)—N-((2-(6-((2S,6R)-2,6-dimethylmorpholino)pyridin-2-yl)-1,6-naphthyridin-7-yl)methyl)-2-fluoro-4-methyl-2,3,4,5-tetrahydrobenzo[f][1,4]thiazepine-8-carboxamide 1,1-dioxide] | 7.29 | 2.9 nM | 21.4 nM |
| [2H]C1([2H])OC([2H])([2H])[C@H](F)S(=O)(=O)c2cc(C(=O)NCc3cc4nc(N5CCOc6ccc(C7CC7)nc65)ccc4cn3)cc(F)c21 [Compound 59] | – | 2.5 nM | 72.5 nM |
| O=C(NCc1cc2nc(N3CCOc4cc(N5CCC5)cnc43)ccc2cn1)c1cc(F)c2c(c1)S(=O)(=O)[C@@H](F)CCO2 [Compound 190] | 20.33 | 5.8 nM | 127 nM |
| CC(C)c1cnc2c(c1)OCCN2c1ccc2cnc(CNC(=O)c3cc(F)c4c(c3)S(=O)(=O)[C@@H](F)CCO4)cc2n1 [Compound 157] | 18.45 | 5.1 nM | 96.8 nM |
| C[C@@H]1CN(c2cccc(-c3ccc4cnc(CNC(=O)c5ccc6c(c5)S(=O)(=O)[C@@H](F)CCO6)cc4n3)n2)C[C@H](C)O1 [Compound 22] | 9.93 | 1.6 nM | 16.2 nM |
| O=C(NCc1cc2nc(N3CCOc4ccc([C@H]5C[C@H]5F)nc43)ccc2cn1)c1cc(F)c2c(c1)S(=O)(=O)[C@@H](F)CCO2 [Compound 277] | 19.61 | 9.1 nM | 90 nM |
| O=C(NCc1cc2nc(-c3cccc(C4CC4)n3)ccc2cn1)c1cc(F)c2c(c1)S(=O)(=O)[C@@H](F)CCOC2 [Compound 327] | – | 3.5 nM | 40.7 nM |
